# Entries after “also recorded” stand apart in the source; their conditions may differ.
# What was measured:
# [1] = system: indicated proteins fused to mutant FKBP*; experiment: Immunoblot of MV4;11 leukemia cells expressing proteins fused to mutant FKBP* with an HA tag; settings: 16 hours, indicated concentrations
# Description: Immunoblots of MV4; 11 leukemia cells expressing indicated proteins fused to mutant FKBP* with an HA tag.
# To test the general utility of the dTAG technology across several protein types, the indicated proteins fused to the dTAG in MV4; 11 leukemia cells were expressed.
# [2] = target: T1, FKBP* (Homo sapiens, UniProt P62942, F37V); experiment: Immunoblot of 293FT cells (CRBN-WT or CRBN−/−) expressing HA-tagged FKBP*; type: cell-based; settings: for degradation of FKBP*: 100 nM
# T1 construct: HA; expressed in transfected cells; host or cells: 293FT cells (CRBN-WT or CRBN-/-)
# Description: FIG. 6 is an immunoblot of cells treated with bi-functional molecules described in the present invention. 293FT cells (CRBN-WT or CRBN−/−) expressing either HA-tagged FKBP12WT or FKBP* (also referred to as dFKBP12* herein) were treated with indicated concentrations of dFKBP7 for 4 hours.
# Isogenic 293FT cells (CRBN-WT or CRBN−/−) expressing either FKBP12WT or FKBP* were treated with 100 nM of either dFKBP7 or dFKBP13 for 4 hours.
# Isogenic 293FT cells (CRBN-WT or CRBN−/−) expressing HA-tagged FKBP* were treated with the indicated dose of dFKBP13 for 4 hours.
# 293FT cells (CRBN-WT) expressing HA-tagged FKBP* were treated with 100 nM dFKBP13 for the indicated times. Cells were harvested and protein lysates immunoblotted to measure the kinetics of HA-tagged FKBP* degradation induced by dFKBP13.
# The dTAG is predicated on the selectivity of FKBP* specific ligands over endogenous, wild type FKBP. In 293 T cells expressing wild type FKBP 12 or FKBP*, dFKBP7 induces targeted degradation only in FKBP* expressing cells. An immunoblot of cells treated with bi-functional molecules described in the present invention was performed. 293FT cells (CRBN-WT or CRBN−/−) expressing either HA-tagged FKBP12WT or FKBP* were treated with indicated concentrations of dFKBP7 for 4 hours.
# In 293T cells expressing wild type FKBP12 or FKBP*, treatment with dFKBP7 and dFKBP13 induces targeted degradation only in FKBP* expressing cells. Isogenic 293FT cells (CRBN-WT or CRBN−/−) were engineered to express either FKBP12WT or FKBP*. Cells were treated with 100 nM of either dFKBP7 or dFKBP13 for 4 hours before lysates were prepared for western immunoblot analysis.
# In an effort to define the optimal concentration of dFKB13 heterobifunctional compounds to induce degradation of FKBP*, degradation was measured upon treatment with increasing concentrations of dFKBP13. Isogenic 293FT cells (CRBN-WT or CRBN−/−) were engineered to expressed HA-tagged FKBP*. Cells were treated with the indicated dose of dFKBP13 for 4 hours before lysates were prepared for western immunoblot analysis.
# To evaluate the kinetic control of targeted degradation FKBP*, dFKBP13 was administered by increased duration. 293FT cells (CRBN-WT) were engineered to express HA-tagged FKBP*. Cells were treated with 100 nM dFKBP13 for the indicated times. Cells were harvested and protein lysates immunoblotted to measure the kinetics of HA-tagged FKBP* degradation induced by dFKBP 13.
# [3] = system: downstream surrogates of KRAS signaling (e.g. pMEK and pAKT); experiment: Immunoblot of NIH3T3 cells expressing FKBP*-KRASG12V: downstream KRAS signaling; type: cell-based
# Description: (§1) FIG. 19 is an immunoblot of NIH3T3 cells expressing KRASG12V allele fused to FKBP* in the N-terminus or C-terminus. Cells were treated with 500 nM dFKBP7 for the indicated time. Cells were harvested and immunoblotted to measure degradation of FKBP*-KRASG12V and downstream surrogates of KRAS signaling (e.g. pMEK and pAKT).
# (§2) FIG. 20 is an immunoblot of NIH3T3 cells expressing FKBP* fused to the N-terminus of KRASG12V treated with luM of the indicated dFKBP heterobifunctional compounds for 24 hours. Cells were harvested and immunoblotted to measure degradation of FKBP*-KRASG12V and downstream surrogates of KRAS signaling (e.g. pMEK and pAKT).
# as §2, with “21” for “20”, “with” for “with luM of”, “concentrations of dFKBP13” for “dFKBP heterobifunctional compounds”
# (§3) FIG. 22 is an immunoblot of NIH3T3 cells expressing FKBP* fused to the N-terminus of KRASG12V treated with luM dFKBP13 for the indicated time. Cells were harvested and immunoblotted to measure degradation of FKBP*-KRASG12V and downstream surrogates of KRAS signaling (e.g. pMEK and pAKT).
# (§4) Cells were treated with 500 nM dFKBP7 for the indicated time. Cells were harvested and immunoblotted to measure degradation of FKBP*-KRAS and downstream surrogates of KRAS signaling (e.g. pMEK and pAKT).
# (§5) Western blotting of NIH3T3 cells expressing dTAG-KRASG12V were treated with 1 μM of the indicated dFKBP heterobifunctional compounds for 24 hours. Cells were harvested and immunoblotted to measure degradation of FKBP*-KRAS and downstream surrogates of KRAS signaling (e.g. pMEK and pAKT).
# (§6) Western blotting of NIH3T3 cells expressing FKBP* fused to the N-terminus of KRAS treated with the indicated concentrations of dFKBP13 for 24 hours. Cells were harvested and immunoblotted to measure degradation of FKBP*-KRAS and downstream surrogates of KRAS signaling (e.g. pMEK and pAKT).
# (§7) To evaluate the kinetic control of targeted degradation of dTAG-KRAS, dFKBP13 was administered by increased duration. Western blotting of NIH3T3 cells expressing FKBP* fused to the N-terminus of KRAS treated with 1 μM dFKBP13 for the indicated time. Cells were harvested and immunoblotted to measure degradation of FKBP*-KRAS and downstream surrogates of KRAS signaling (e.g. pMEK and pAKT).
# [4] = system: FKBP*-KRASG12V; experiment: Immunoblot of NIH3T3 cells expressing FKBP* fused to KRASG12V: degradation; type: cell-based
# Description: as §1, §2
# as §3, with “21” for “22”, “the indicated concentrations of” for “luM”, “24 hours.” for “the indicated time.”
# as §3, §4, §5, §6, §7
# [5] = isogenic 293FT CRBN-WT or CRBN−/−, 4 hours
# T1 sequence (P62942 whole entry F37V): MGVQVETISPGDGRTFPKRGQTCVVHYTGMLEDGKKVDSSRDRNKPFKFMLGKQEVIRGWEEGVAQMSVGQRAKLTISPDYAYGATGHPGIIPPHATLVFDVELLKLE
SMILES,degradation of proteins fused to dTAG (FKBP*) [1],"degradation of HA-tagged FKBP* ([2]; 293FT CRBN-WT or CRBN−/−, indicated concentrations of dFKBP7, 4 hours)","degradation of FKBP* [2, 5]","downstream p-AKT signal ([3]; NIH3T3 N-terminal dTAG-KRAS, 500 nM dFKBP7, indicated time)","degradation of FKBP*-KRASG12V ([4]; 500 nM dFKBP7, indicated time, N-terminal fusion)","degradation of HA-tagged FKBP*, dose dependence ([2]; isogenic 293FT CRBN-WT or CRBN−/−, indicated dose, 4 hours)","inhibition of downstream signaling (pMEK, pAKT) ([3]; NIH3T3 FKBP*-KRASG12V, 1 μM, 24 hours)","IC50 ([3]; NIH3T3 FKBP*-KRASG12V, indicated concentrations of dFKBP13, 24 hours, read-out: IC50, inhibits downstream signaling) [nM]","time at which degradation of FKBP*-KRASG12V and inhibition of downstream signaling are seen ([4]; 1 μM dFKBP13, indicated time) [h]","degradation of FKBP*-KRASG12V ([4]; 1 μM, 24 hours)","degradation of FKBP*-KRASG12V ([4]; indicated concentrations of dFKBP13, 24 hours)"
CC[C@H](C(=O)N1CCCC[C@H]1C(=O)O[C@H](CCc1ccc(OC)c(OC)c1)c1cccc(OCC(=O)NCCCOCCOCCOCCCNC(=O)COc2cccc3c2C(=O)N(C2CCC(=O)NC2=O)C3=O)c1)c1cc(OC)c(OC)c(OC)c1 (stereo partly shown) [dFKBP7],degradation was observed with nanomolar concentrations,CRBN-dependent degradation of FKBP*,CRBN-dependent degradation of FKBP*,downstream decrease in p-AKT signal,potent degradation; also recorded: N-terminal FKBP* fusions are active and degraded,,,,,,
CC[C@H](C(=O)N1CCCC[C@H]1C(=O)O[C@H](CCc1ccc(OC)c(OC)c1)c1cccc(OCC(=O)NCCCCCCOc2cccc3c2C(=O)N(C2CCC(=O)NC2=O)C3=O)c1)c1cc(OC)c(OC)c(OC)c1 (stereo partly shown) [dFKBP13],degradation was observed with nanomolar concentrations,,CRBN-dependent degradation of FKBP*,,,dose- and CRBN-dependent degradation,inhibition of downstream signaling,> 100,≤ 1,potent degradation,potently degrades dTAG-KRAS at nanomolar concentrations; also recorded: potent degradation
